According to US10285994B2, “Method of preventing or treating osteoporosis by neddylation inhibitor” (Chang Gung University, priority 2017, dated 2019):

Experiments:
cathepsin K = assay: Cathepsin K activity fluorometric assay, RAW264.7 cells; format: cell-based, mouse; conditions: sRANKL-activated RAW264.7 cells, 7 days, FIG. 2C
Protocol: FIGS. 2A-2D are data collected from RAW264.7 cells respectively incubated in the medium containing sRANKL (50 ng/ml) and specified concentrations of MLN4924 for 7 days according to example 1.2 of the present disclosure. FIG. 2A: the photographs of TRAP staining depicting the differentiation of osteoclasts from RAW264.7 cells. FIG. 2B: after the differentiation of osteoclasts in Corning Osteo Surface, the cells were removed, and the resorbed areas for confirming osteoclast activity were analyzed by 1% toluidine blue staining. FIG. 2C: the culture medium is subject to Biovision Cathepsin K Activity Fluorometric Assay Kit for the analysis of cathepsin K activity. FIG. 2D: the effect of effective doses of MLN4924 on the viability of RAW264.7 cells is evaluated by MTT assay. Scale bar represents 100 μm. Data are expressed as mean±SD where *p<0.05.
The pre-osteoclasts and RAW264.7 cells were seeded into Corning Osteo Surface Assay 96-wells plate (Corning, Kennebunk, Me.). Twenty-four hours later, the cells were treated with sRANKL (50 ng/ml) and specified concentrations of MLN4924 for 7 days. The cells were then harvested so as to evaluate the cathepsin K activity by use of Biovision Cathepsin K Activity Fluorometric Assay Kit (Biovision, Milpitas, Calif.). The Corning Osteo surface was stained with 1% toluidine blue for 24 hours and washed with deionized water twice. […]

MC3T3-E1 cells = assay: Osteogenesis, Alizarin Red S stain of MC3T3-E1 cells; format: cell-based, mouse; conditions: MC3T3-E1, osteoblast differentiation medium, 21 days, FIG. 4B
Protocol: FIGS. 4A-4B respectively depict the osteogenesis of mouse pre-osteoblast cell line MC3T3-E1 cells incubated in the differentiation medium containing specified concentrations of MLN4924 for 21 days according to example 3 of the present disclosure. FIG. 4A: the growth of MC3T3-E1 cells during osteogenesis is analyzed by crystal violet staining. FIG. 4B: the osteogenesis of MC3T3-E1 cells on day 21 is analyzed by measuring Alizarin Red S stain. Diff: osteoblast differentiation medium. MLN: MLN4924.
The mouse pre-osteoblast cell line MC3T3-E1 cells were cultured in osteoblast differentiation medium with or without MLN4924 for 21 days.

ERK (pERK) = assay: Western blot, sRANKL-induced ERK phosphorylation in RAW264.7 cells; format: cell-based, mouse; conditions: RAW264.7, 30 min pre-treatment, sRANKL 50 ng/ml, FIG. 3A-3B
Protocol: FIGS. 3A-3D are data collected from Western blot analysis that respectively depict the expression of specified protein extracted from the RAW264.7 cells, which are pre-treated with specified concentrations of MLN4924 for 30 minutes followed by the stimulation of sRANKL (50 ng/ml) according to example 2 of the present disclosure. FIG. 3A: the time course effect of MLN4924 on the phosphorylations of ERK (pERK), P38 (pP38) and JNK (pJNK). FIG. 3B: the dose effect of MLN4924 on the phosphorylations of ERK (pERK), P38 (pP38) and JNK (pJNK). FIG. 3C: the time course effect of MLN4924 on the expression of NFATc-1. FIG. 3D: the dose effect of MLN4924 on the expression of NFATc-1. Mock: untreated control; R: sRANKL; M: MLN4924.
The RAW264.7 cells were starved with serum-free medium for six hours and then treated with the specified treatments. At indicated time points, the cells were washed with cold phosphate-buffered saline (PBS) and lysed in RIPA buffer containing complete protease inhibitor cocktail (Roche). The cell lysates were separated by SDS-PAGE followed by Western blotting with the indicated antibodies, including NEDD8, APPBP1, UBA3.
Specifically, the inhibitory effect increased with an increase in the MLN4924 concentration (FIG. 3B).

[1] = system: primary mouse bone marrow-derived macrophages (BMMs); assay: Osteoclast formation from BMMs, TRAP staining; format: cell-based; conditions: sRANKL 50 ng/ml, M-CSF 40 ng/ml, 7 days, FIG. 1A
Protocol: (§1) FIGS. 1A-1D are data collected from primary mouse bone marrow-derived macrophages (BMMs) respectively incubated in the medium containing the soluble recombinant RANKL (sRANKL, 50 ng/ml), macrophage colony-stimulating factor (M-CSF, 40 ng/ml) and specified concentrations of MLN4924 for 7 days according to example 1.1 of the present disclosure. FIG. 1A: the photographs of TRAP staining depicting the differentiation of osteoclasts from BMMs. FIG. 1B: after the differentiation of osteoclasts in Corning Osteo Surface (a synthetic 3-dimensional structure that mimics in vivo bone for in vitro bone cell assays), the cells were removed, and the resorbed areas for confirming osteoclast activity were analyzed by 1% toluidine blue staining. FIG. 1C: the culture medium is subject to Biovision Cathepsin K Activity Fluorometric Assay Kit for the analysis of cathepsin K activity. FIG. 1D: the effect of effective doses of MLN4924 on the viability of BMMs is evaluated by MTT assay. Scale bar represents 100 μm. Data are expressed as mean±SD where *p<0.05; **p<0.01.
The pre-osteoclast cells were prepared by mouse bone marrow-derived macrophage (BMM). In brief, the femurs and tibias were obtained from 6-12 week old C57BL/6J female mice. […]

[2] = system: primary mouse bone marrow-derived macrophages (BMMs); assay: Pit assay on Corning Osteo Surface, BMM-derived osteoclasts; format: cell-based; conditions: M-CSF, sRANKL, 7 days, FIG. 1B
Protocol: as §1
The pre-osteoclasts and RAW264.7 cells were seeded into Corning Osteo Surface Assay 96-wells plate (Corning, Kennebunk, Me.). […]
The effect of MLN4924 on the activity of osteoclast was then confirmed by pit assay. […] The resorbing areas on bone matrix by osteoclasts were visualized by 1% toluidine blue staining and quantified by image software.

Q: Which “osteolytic enzyme cathepsin K activity of osteoclasts” value (cathepsin K) does the source give for `NS(=O)(=O)OC[C@@H]1C[C@@H](n2ccc3c(N[C@H]4CCc5ccccc54)ncnc32)C[C@@H]1O` [MLN4924, (1S,2S,4R)-4-(4-((1S)-2,3-Dihydro-1H-inden-1-ylamino)-7H-pyrrolo(2,3-d)pyrimidin-7-yl)-2-hydroxycyclopentyl) methyl sulphamate] here?
A: The value was “significantly inhibited”.

Q: What about the “differentiation of osteoblasts (Alizarin Red S)” value (MC3T3-E1 cells) of the same compound?
A: Its value is “neither the survival of osteoblasts (FIG. 4A), nor the differentiation of osteoblasts (FIG. 4B) was affected”.

Q: And the “sRANKL-upregulated phosphorylation of ERK (pERK)” value (ERK (pERK))?
A: Its value is “inhibited”.

Q: What about the “sRANKL-mediated osteoclast formation (TRAP staining)” value [1] of the same compound?
A: Its value is “obviously suppressed the sRANKL-mediated osteoclast formation in a dose-dependent manner”.

Q: And the “resorbing activity of osteoclasts (pit assay, toluidine blue)” value [2]?
A: Its value is “suppressed the resorbing activity of osteoclasts in a dose-dependent manner”.
